{
  "source": "the supplement of paper PMC8671470",
  "data": [
    {"tested_on": "myeloid leukemia patient primary cells Pat.12", "test": "cell viability (% survival relative to DMSO control); higher = less cytotoxic", "settings": "1000 nM; 72 h", "in_short": "(§1)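 Where an area under the curve appears, it was computed with the drc and PharmacoGx R packages from log-logistic fits. Those fits used four parameters. The underlying viability data came from CellTiter-Glo after 72 h, normalised to DMSO and 10 μM proteasome-inhibitor wells, with thawed, Ficoll-purified AML or CML patient mononuclear cells at 10,000 cells/well in RPMI 1640 with 10% FBS on 384-well plates pre-printed with 70 compounds at five tenfold concentrations (1–10,000 nM) in duplicate.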", "units": {"cell viability": "%"}, "values": [
      {"compound": "O=C(O)Cn1nnc(-c2cc(N3CCC(Oc4cc(F)ccc4Br)CC3)no2)n1", "note": "[MK-8245]", "cell viability": 95.7},
      {"compound": "C=C(C=NNC(=N)N)NNC(=N)N", "note": "[Mitoguazone]", "cell viability": 96.9},
      {"compound": "COc1cc(/C=C/C(=O)N2CCC=CC2=O)cc(OC)c1OC", "note": "[Piperlongumine]", "cell viability": 80.4},
      {"compound": "C=C(C)[C@H]1Cc2c(ccc3c2O[C@@H]2COc4cc(OC)c(OC)cc4[C@@H]2C3=O)O1", "note": "[Rotenone]", "cell viability": 64.9},
      {"compound": "Oc1ccc(Nc2nc(-c3ccc(Cl)cc3)cs2)cc1", "note": "[SKI II]", "cell viability": "> 100"},
      {"compound": "CC[C@@]1(O)C(=O)OCc2c1cc1n(c2=O)Cc2cc3c(CN(C)C)c(O)ccc3nc2-1", "note": "[Topotecan]", "cell viability": 93.5}
    ]},
    {"tested_on": "myeloid leukemia patient primary cells Pat.12", "test": "cell viability (% survival relative to DMSO control); higher = less cytotoxic", "settings": "10000 nM; 72 h", "in_short": "as §1", "units": {"cell viability": "%"}, "values": [
      {"compound": "O=C(C1CC1)N1CC[C@@H](C=C2NNC(=O)N2c2ccc(-c3ccc4occc4c3)cc2)C1", "cell viability": 84.1},
      {"compound": "C[C@H](NC(=O)c1sccc1OCc1ccc(Cl)cc1)c1ccccc1", "cell viability": 63.8},
      {"compound": "O=C(O)C1=CC(=C(c2ccc(O)c(C(=O)O)c2)c2ccc(O)c(C(=O)O)c2)C=CC1=O", "note": "[Aurintricarboxylic acid]", "cell viability": 99.6},
      {"compound": "COC(=O)[C@]12CCC(C)(C)C[C@H]1[C@H]1C(=O)C=C3[C@@]4(C)C=C(C#N)C(=O)C(C)(C)[C@@H]4CC[C@@]3(C)[C@]1(C)CC2", "note": "[Bardoxolone methyl]", "cell viability": 52.6},
      {"compound": "Cc1c(-c2ccc(-c3ccccc3F)cc2)nc2ccc(F)cc2c1C(=O)O", "note": "[Brequinar]", "cell viability": 95},
      {"compound": "O=C1O/C(=C/Br)CCC1c1cccc2ccccc12", "note": "(centres undefined) [Bromoenol Lactone]", "cell viability": 33.9},
      {"compound": "Nc1nc(Cl)nc2c1ncn2[C@H]1C[C@H](O)[C@@H](CO)O1", "note": "[Cladribine]", "cell viability": 7.86},
      {"compound": "N#CC(C#N)=NNc1ccc(OC(F)(F)F)cc1", "note": "[FCCP]", "cell viability": 36.1},
      {"compound": "O=C1c2cc([N+](=O)[O-])ccc2-n2c1nc1ccccc1c2=O", "note": "[GNF-Pf-3777]", "cell viability": 78.6},
      {"compound": "O=C(O)Cn1nnc(-c2cc(N3CCC(Oc4cc(F)ccc4Br)CC3)no2)n1", "note": "[MK-8245]", "cell viability": 93.6},
      {"compound": "C=C(C=NNC(=N)N)NNC(=N)N", "note": "[Mitoguazone]", "cell viability": 99.4},
      {"compound": "COc1cc(/C=C/C(=O)N2CCC=CC2=O)cc(OC)c1OC", "note": "[Piperlongumine]", "cell viability": 3.26},
      {"compound": "C=C(C)[C@H]1Cc2c(ccc3c2O[C@@H]2COc4cc(OC)c(OC)cc4[C@@H]2C3=O)O1", "note": "[Rotenone]", "cell viability": 49.5},
      {"compound": "Oc1ccc(Nc2nc(-c3ccc(Cl)cc3)cs2)cc1", "note": "[SKI II]", "cell viability": 53.9},
      {"compound": "CC[C@@]1(O)C(=O)OCc2c1cc1n(c2=O)Cc2cc3c(CN(C)C)c(O)ccc3nc2-1", "note": "[Topotecan]", "cell viability": 48.3}
    ]},
    {"tested_on": "myeloid leukemia patient primary cells Pat.2", "test": "cell viability (% survival relative to DMSO control); higher = less cytotoxic", "settings": "1 nM; 72 h", "in_short": "as §1", "units": {"cell viability": "%"}, "values": [
      {"compound": "O=C(C1CC1)N1CC[C@@H](C=C2NNC(=O)N2c2ccc(-c3ccc4occc4c3)cc2)C1", "cell viability": "> 100"},
      {"compound": "C[C@H](NC(=O)c1sccc1OCc1ccc(Cl)cc1)c1ccccc1", "cell viability": "> 100"},
      {"compound": "O=C(O)C1=CC(=C(c2ccc(O)c(C(=O)O)c2)c2ccc(O)c(C(=O)O)c2)C=CC1=O", "note": "[Aurintricarboxylic acid]", "cell viability": 98},
      {"compound": "COC(=O)[C@]12CCC(C)(C)C[C@H]1[C@H]1C(=O)C=C3[C@@]4(C)C=C(C#N)C(=O)C(C)(C)[C@@H]4CC[C@@]3(C)[C@]1(C)CC2", "note": "[Bardoxolone methyl]", "cell viability": "> 100"},
      {"compound": "Cc1c(-c2ccc(-c3ccccc3F)cc2)nc2ccc(F)cc2c1C(=O)O", "note": "[Brequinar]", "cell viability": "> 100"},
      {"compound": "O=C1O/C(=C/Br)CCC1c1cccc2ccccc12", "note": "(centres undefined) [Bromoenol Lactone]", "cell viability": 96.5},
      {"compound": "Nc1nc(Cl)nc2c1ncn2[C@H]1C[C@H](O)[C@@H](CO)O1", "note": "[Cladribine]", "cell viability": "> 100"},
      {"compound": "N#CC(C#N)=NNc1ccc(OC(F)(F)F)cc1", "note": "[FCCP]", "cell viability": 92.5},
      {"compound": "O=C1c2cc([N+](=O)[O-])ccc2-n2c1nc1ccccc1c2=O", "note": "[GNF-Pf-3777]", "cell viability": 98.3},
      {"compound": "O=C(O)Cn1nnc(-c2cc(N3CCC(Oc4cc(F)ccc4Br)CC3)no2)n1", "note": "[MK-8245]", "cell viability": "> 100"},
      {"compound": "C=C(C=NNC(=N)N)NNC(=N)N", "note": "[Mitoguazone]", "cell viability": 96.2},
      {"compound": "COc1cc(/C=C/C(=O)N2CCC=CC2=O)cc(OC)c1OC", "note": "[Piperlongumine]", "cell viability": 90.5},
      {"compound": "C=C(C)[C@H]1Cc2c(ccc3c2O[C@@H]2COc4cc(OC)c(OC)cc4[C@@H]2C3=O)O1", "note": "[Rotenone]", "cell viability": 62.7},
      {"compound": "Oc1ccc(Nc2nc(-c3ccc(Cl)cc3)cs2)cc1", "note": "[SKI II]", "cell viability": 95.5},
      {"compound": "CC[C@@]1(O)C(=O)OCc2c1cc1n(c2=O)Cc2cc3c(CN(C)C)c(O)ccc3nc2-1", "note": "[Topotecan]", "cell viability": 90.7}
    ]},
    {"tested_on": "myeloid leukemia patient primary cells Pat.2", "test": "cell viability (% survival relative to DMSO control); higher = less cytotoxic", "settings": "10 nM; 72 h", "in_short": "as §1", "units": {"cell viability": "%"}, "values": [
      {"compound": "O=C(C1CC1)N1CC[C@@H](C=C2NNC(=O)N2c2ccc(-c3ccc4occc4c3)cc2)C1", "cell viability": 99},
      {"compound": "C[C@H](NC(=O)c1sccc1OCc1ccc(Cl)cc1)c1ccccc1", "cell viability": 95.8},
      {"compound": "O=C(O)C1=CC(=C(c2ccc(O)c(C(=O)O)c2)c2ccc(O)c(C(=O)O)c2)C=CC1=O", "note": "[Aurintricarboxylic acid]", "cell viability": 99.7},
      {"compound": "COC(=O)[C@]12CCC(C)(C)C[C@H]1[C@H]1C(=O)C=C3[C@@]4(C)C=C(C#N)C(=O)C(C)(C)[C@@H]4CC[C@@]3(C)[C@]1(C)CC2", "note": "[Bardoxolone methyl]", "cell viability": 93.5},
      {"compound": "Cc1c(-c2ccc(-c3ccccc3F)cc2)nc2ccc(F)cc2c1C(=O)O", "note": "[Brequinar]", "cell viability": 92.7},
      {"compound": "O=C1O/C(=C/Br)CCC1c1cccc2ccccc12", "note": "(centres undefined) [Bromoenol Lactone]", "cell viability": "> 100"},
      {"compound": "Nc1nc(Cl)nc2c1ncn2[C@H]1C[C@H](O)[C@@H](CO)O1", "note": "[Cladribine]", "cell viability": 89.8},
      {"compound": "N#CC(C#N)=NNc1ccc(OC(F)(F)F)cc1", "note": "[FCCP]", "cell viability": 90.8},
      {"compound": "O=C1c2cc([N+](=O)[O-])ccc2-n2c1nc1ccccc1c2=O", "note": "[GNF-Pf-3777]", "cell viability": 93.2},
      {"compound": "O=C(O)Cn1nnc(-c2cc(N3CCC(Oc4cc(F)ccc4Br)CC3)no2)n1", "note": "[MK-8245]", "cell viability": 97},
      {"compound": "C=C(C=NNC(=N)N)NNC(=N)N", "note": "[Mitoguazone]", "cell viability": 79.2},
      {"compound": "COc1cc(/C=C/C(=O)N2CCC=CC2=O)cc(OC)c1OC", "note": "[Piperlongumine]", "cell viability": 98.5},
      {"compound": "C=C(C)[C@H]1Cc2c(ccc3c2O[C@@H]2COc4cc(OC)c(OC)cc4[C@@H]2C3=O)O1", "note": "[Rotenone]", "cell viability": 86.5},
      {"compound": "Oc1ccc(Nc2nc(-c3ccc(Cl)cc3)cs2)cc1", "note": "[SKI II]", "cell viability": 95.9},
      {"compound": "CC[C@@]1(O)C(=O)OCc2c1cc1n(c2=O)Cc2cc3c(CN(C)C)c(O)ccc3nc2-1", "note": "[Topotecan]", "cell viability": 92.9}
    ]},
    {"tested_on": "myeloid leukemia patient primary cells Pat.2", "test": "cell viability (% survival relative to DMSO control); higher = less cytotoxic", "settings": "100 nM; 72 h", "in_short": "as §1", "units": {"cell viability": "%"}, "values": [
      {"compound": "O=C(C1CC1)N1CC[C@@H](C=C2NNC(=O)N2c2ccc(-c3ccc4occc4c3)cc2)C1", "cell viability": "> 100"},
      {"compound": "C[C@H](NC(=O)c1sccc1OCc1ccc(Cl)cc1)c1ccccc1", "cell viability": "> 100"},
      {"compound": "O=C(O)C1=CC(=C(c2ccc(O)c(C(=O)O)c2)c2ccc(O)c(C(=O)O)c2)C=CC1=O", "note": "[Aurintricarboxylic acid]", "cell viability": 97.8},
      {"compound": "COC(=O)[C@]12CCC(C)(C)C[C@H]1[C@H]1C(=O)C=C3[C@@]4(C)C=C(C#N)C(=O)C(C)(C)[C@@H]4CC[C@@]3(C)[C@]1(C)CC2", "note": "[Bardoxolone methyl]", "cell viability": 78.5},
      {"compound": "Cc1c(-c2ccc(-c3ccccc3F)cc2)nc2ccc(F)cc2c1C(=O)O", "note": "[Brequinar]", "cell viability": 97.1},
      {"compound": "O=C1O/C(=C/Br)CCC1c1cccc2ccccc12", "note": "(centres undefined) [Bromoenol Lactone]", "cell viability": 97.2},
      {"compound": "Nc1nc(Cl)nc2c1ncn2[C@H]1C[C@H](O)[C@@H](CO)O1", "note": "[Cladribine]", "cell viability": 53.5},
      {"compound": "N#CC(C#N)=NNc1ccc(OC(F)(F)F)cc1", "note": "[FCCP]", "cell viability": "> 100"}
    ]}
  ]
}
